Legend:
Assay type in all cases: cell-based
Sclerotinia homoeocarpa [1] = test: Radial growth of dollar spot fungus after treatment of plugs in PBS (24 well plates), dark vs light; details: for inhibition at 500 µM: Clarireedia homoeocarpa
Method: In this example, control of dollar spot fungus (Sclerotinia homoeocarpa) with chlorins combined with a chelating agent was assessed. Treatments were prepared in Phosphate Buffered Saline (PBS) in 24 well plates (in duplicates for light vs. dark incubation) at desired concentrations. Then, a 5 mm diameter plug of a Sclerotinia homoeocarpa isolate (3 isolates total tested) was inoculated into the PBS and incubated at 21° C. in the dark for 2 hours. After 2 hours, one of the 24 well plates (with isolates in triplicate) is left in the dark and one 24 well plate is placed under illumination for 1 hour (all at 21° C.). Following illumination, fungal plugs are removed from PBS, blotted dry on sterile filter paper and transferred to non-amended Potato Dextrose Agar (PDA). Radial growth of the fungus is monitored daily until the growth of S. homoeocarpa reaches the edge of the Petri-dish. Illumination is provided by LED lights emitting about 1000 μmol/m^2/s photosynthetically active radiation (PAR). In this example, control of dollar spot fungus (Sclerotinia homoeocarpa) with Zinc Protoporphyrin IX (Zn-PPIX) combined with EDTA was assessed. Treatments were prepared in Phosphate Buffered Saline (PBS) in 24 well plates (in duplicates for light vs. dark incubation) at desired concentrations. Then, a 5 mm diameter plug of a Sclerotinia homoeocarpa isolate (3 isolates total tested) was inoculated into the PBS and incubated at 21° C. in the dark for 2 hours. After 2 hours, one of the 24 well plates (with isolates in triplicate) is left in the dark and one 24 well plate is placed under illumination for 1 hour (all at 21° C.). Following illumination, fungal plugs are removed from PBS, blotted dry on sterile filter paper and transferred to non-amended Potato Dextrose Agar (PDA). Radial growth of the fungus is monitored daily until the growth of S. homoeocarpa reaches the edge of the Petri-dish. Illumination is provided by LED lights emitting about 1000 μmol/m^2/s photosynthetically active radiation (PAR). In this example, control of dollar spot fungus (Sclerotinia homoeocarpa) with bacteriochlorin combined with EDTA was assessed. Treatments were prepared in Phosphate Buffered Saline (PBS) in 24 well plates (in duplicates for light vs. dark incubation) at desired concentrations. Then, a 5 mm diameter plug of a Sclerotinia homoeocarpa isolate (3 isolates total tested) was inoculated into the PBS and incubated at 21° C. in the dark for 2 hours. After 2 hours, one of the 24 well plates (with isolates in triplicate) is left in the dark and one 24 well plate is placed under illumination for 1 hour (all at 21° C.). Following illumination, fungal plugs are removed from PBS, blotted dry on sterile filter paper and transferred to non-amended Potato Dextrose Agar (PDA). Radial growth of the fungus is monitored daily until the growth of S. homoeocarpa reaches the edge of the Petri-dish. Illumination is provided by LED lights emitting about 1000 μmol/m^2/s photosynthetically active radiation (PAR). In this example, control of dollar spot fungus (Sclerotinia homoeocarpa) with Aluminum chlorin e6 combined with EDTA was assessed. Treatments were prepared in Phosphate Buffered Saline (PBS) in 24 well plates (in duplicates for light vs. dark incubation) at desired concentrations. Then, a 5 mm diameter plug of a Sclerotinia homoeocarpa isolate (3 isolates total tested) was inoculated into the PBS and incubated at 21° C. in the dark for 2 hours. After 2 hours, one of the 24 well plates (with isolates in triplicate) is left in the dark and one 24 well plate is placed under illumination for 1 hour (all at 21° C.). Following illumination, fungal plugs are removed from PBS, blotted dry on sterile filter paper and transferred to non-amended Potato Dextrose Agar (PDA). Radial growth of the fungus is monitored daily until the growth of S. homoeocarpa reaches the edge of the Petri-dish. Illumination is provided by LED lights emitting about 1000 μmol/m^2/s photosynthetically active radiation (PAR). […]

E. Coli K-12 = test: E. Coli assay under LED lamps, colony count; details: light
Method: Regarding the E. Coli assay tests in the above examples, the following procedure was used: • 1. E. Coli K-12 inoculated in 5 mL TSB and placed in a shaking incubator overnight. • 2. Dilute culture in 500 mL PBS (˜10̂8 CFU/mL) and placed in shaking incubator for 30 minutes at […]. • 3.15 mL samples created using 12 mL culture and a mixture of PBS buffer and sample compounds. • 4. Placed under LED lamps for 2 hours (40 W/m^2). • 5. Samples diluted to 10^−4 and culture controls diluted to 10^−5 for plating through series dilutions. • 6. 0.1 mL plated of each sample in triplicates on TSA base (10^−3 and 10^−4 for samples. 10^−4 and 10^−5 for controls). • 7. Incubated overnight at 37° C. • 8. Colonies counted next morning and recorded.

Xanthomonas axonopodis = Xanthomonas axonopodis count after photodynamic treatment in liquid medium; details: Mg-Chlorophyllin alone; same protocol as Example 1
Method: Xanthomonas axonopodis are bacterial pathogens that cause citrus canker. Citrus canker is a highly contagious plant disease than can destroy an entire crop field. […] Positive results were obtained at several chlorophyllin concentrations and exposure times.
Xanthomonas were grown in liquid medium. Samples were incubated for 30 mins or 5 mins with Mg-Chlorophyllin and with Disodium-EDTA for 30 mins, and then illuminated with 395 nm (fluence 26.6 J cm−2) for 30 mins. CFU of the bacteria was counted on the plates.

Sclerotinia homoeocarpa [2] = test: Radial growth of dollar spot fungus on amended Potato Dextrose Agar, dark vs light; details: rate 31 μM
[3] = Table 22A, dark, rate 500 μM, growth between 48 and 72 hours
[4] = Table 22B, light, rate 500 μM, growth between 48 and 72 hours

O=C(O)CN(CCN(CC(=O)O)CC(=O)O)CC(=O)O [EDTA, disodium EDTA]
inhibition at 500 µM (Sclerotinia homoeocarpa [1]; Table 18A, dark, rate 500 μM): 39.8% | inhibition at 500 µM (Sclerotinia homoeocarpa [1]; Table 18B, light, rate 500 μM): 16.6% | inhibition at 500 µM (Sclerotinia homoeocarpa [1]; Table 19A, light, rate 500 μM): 36% | inhibition at 500 µM (Sclerotinia homoeocarpa [1]; Table 20A, dark, rate 500 μM): 32.8% | inhibition at 500 µM (Sclerotinia homoeocarpa [1]; Table 20B, light, rate 500 μM): 33.5% | inhibition at 500 µM (Sclerotinia homoeocarpa [1]; Table 21A, dark, rate 500 μM): 11.6% | inhibition at 500 µM (Sclerotinia homoeocarpa [1]; Table 21B, light, rate 500 μM): 15.3% | inhibition at 500 µM (Sclerotinia homoeocarpa [1]; [3]): -3.89% | inhibition at 500 µM (Sclerotinia homoeocarpa [1]; [4]): 35.2% | inhibition at 500 µM (Sclerotinia homoeocarpa [1]; Table 31A, dark, rate 500 μM): 13.6% | inhibition at 500 µM (Sclerotinia homoeocarpa [1]; Table 31B, light, rate 500 μM): 36.4% | Mean Radial Growth (Sclerotinia homoeocarpa [1]; Table 18A, dark, rate 500 μM): 6.72 mm | Mean Radial Growth (Sclerotinia homoeocarpa [1]; Table 18B, light, rate 500 μM): 9.22 mm | Mean Radial Growth (Sclerotinia homoeocarpa [1]; Table 19A, light, rate 500 μM): 7.11 mm | Mean Radial Growth (Sclerotinia homoeocarpa [1]; Table 20A, dark, rate 500 μM): 7.17 mm | Mean Radial Growth (Sclerotinia homoeocarpa [1]; Table 20B, light, rate 500 μM): 7.17 mm | Mean Radial Growth (Sclerotinia homoeocarpa [1]; Table 21A, dark, rate 500 μM): 11.06 mm | Mean Radial Growth (Sclerotinia homoeocarpa [1]; Table 21B, light, rate 500 μM): 10.78 mm | Mean Radial Growth (Sclerotinia homoeocarpa [1]; [3]): 14.83 mm | Mean Radial Growth (Sclerotinia homoeocarpa [1]; [4]): 8.89 mm | Mean Radial Growth (Sclerotinia homoeocarpa [1]; Table 31A, dark, rate 500 μM): 12.67 mm | Mean Radial Growth (Sclerotinia homoeocarpa [1]; Table 31B, light, rate 500 μM): 8.17 mm

C=Cc1c(C)c2cc3nc(c(CC(=O)[O-])c4[n-]c(cc5nc(cc1[n-]2)C(C)=C5CC)c(C)c4C(=O)[O-])C(CCC(=O)[O-])C3C.[Mg+2].[Na+].[Na+].[Na+] (centres unmarked) [Mg-Chlorophyllin, Mg-chlorophyllin]
% Inhibition (Sclerotinia homoeocarpa [1]; Table 18A, dark, rate 10 μM): −3.98% | Mean Radial Growth (Sclerotinia homoeocarpa [1]; Table 18A, dark, rate 10 μM): 11.61 mm | % Inhibition (Sclerotinia homoeocarpa [1]; Table 18A, dark, rate 100 μM): −11.94% | Mean Radial Growth (Sclerotinia homoeocarpa [1]; Table 18A, dark, rate 100 μM): 12.50 mm | % Inhibition (Sclerotinia homoeocarpa [1]; Table 18B, light, rate 10 μM): 31.66% | Mean Radial Growth (Sclerotinia homoeocarpa [1]; Table 18B, light, rate 10 μM): 7.56 mm | % Inhibition (Sclerotinia homoeocarpa [1]; Table 18B, light, rate 100 μM): 22.61% | Mean Radial Growth (Sclerotinia homoeocarpa [1]; Table 18B, light, rate 100 μM): 8.56 mm | % Inhibition (Sclerotinia homoeocarpa [1]; Table 25A, dark, rate 5 μM): 1.04% | Mean Radial Growth (Sclerotinia homoeocarpa [1]; Table 25A, dark, rate 5 μM): 10.56 mm | % Inhibition (Sclerotinia homoeocarpa [1]; Table 25B, light, rate 5 μM): 37.76% | Mean Radial Growth (Sclerotinia homoeocarpa [1]; Table 25B, light, rate 5 μM): 6.78 mm | % Inactivation (E. Coli K-12; Table 10, 1 μM MgChln): 95.0% | CFU/mL (E. Coli K-12; Table 10, 1 μM MgChln): 2.73E+05 CFU/mL | LogCFU/mL (E. Coli K-12; Table 10, 1 μM MgChln): 5.44 LogCFU/mL | % Inactivation (E. Coli K-12; Table 10, 10 μM MgChln): 97.6% | CFU/mL (E. Coli K-12; Table 10, 10 μM MgChln): 1.30E+05 CFU/mL | LogCFU/mL (E. Coli K-12; Table 10, 10 μM MgChln): 5.11 LogCFU/mL | % Inactivation (E. Coli K-12; Table 11, 1 μM MgChln): 86.1% | CFU/mL (E. Coli K-12; Table 11, 1 μM MgChln): 9.07E+05 CFU/mL | LogCFU/mL (E. Coli K-12; Table 11, 1 μM MgChln): 5.96 LogCFU/mL | % Inactivation (E. Coli K-12; Table 12, 1 μM MgChln): 91.3% | CFU/mL (E. Coli K-12; Table 12, 1 μM MgChln): 6.13E+05 CFU/mL | LogCFU/mL (E. Coli K-12; Table 12, 1 μM MgChln): 5.79 LogCFU/mL | control of Xanthomonas axonopodis (Xanthomonas axonopodis): little effect | % Inhibition (Sclerotinia homoeocarpa [2]; Table 7A, dark): 24.1% | Mean Radial Growth (Sclerotinia homoeocarpa [2]; Table 7A, dark): 11.2 mm | % Inhibition (Sclerotinia homoeocarpa [2]; Table 7B, light): 51.0% | Mean Radial Growth (Sclerotinia homoeocarpa [2]; Table 7B, light): 6.6 mm | % Inhibition (Sclerotinia homoeocarpa [2]; Table 14A, dark): 32.5% | Mean Radial Growth (Sclerotinia homoeocarpa [2]; Table 14A, dark): 9.1 mm | % Inhibition (Sclerotinia homoeocarpa [2]; Table 14B, light): 59.2% | Mean Radial Growth (Sclerotinia homoeocarpa [2]; Table 14B, light): 5.3 mm | % Inhibition (Sclerotinia homoeocarpa [2]; Table 15A, dark): 32.5% | Mean Radial Growth (Sclerotinia homoeocarpa [2]; Table 15A, dark): 9.1 mm | % Inhibition (Sclerotinia homoeocarpa [2]; Table 15B, light): 59.2% | Mean Radial Growth (Sclerotinia homoeocarpa [2]; Table 15B, light): 5.3 mm

Reference: patent US20200253211A1, “PHOTODYNAMIC INHIBITION OF MICROBIAL PATHOGENS IN PLANTS” (SUNCOR ENERGY INC, priority 2017, published 2020)
